In series [1] the target is T1, PTP1B (Homo sapiens, UniProt P18031).
T1 sequence (P18031 1-435): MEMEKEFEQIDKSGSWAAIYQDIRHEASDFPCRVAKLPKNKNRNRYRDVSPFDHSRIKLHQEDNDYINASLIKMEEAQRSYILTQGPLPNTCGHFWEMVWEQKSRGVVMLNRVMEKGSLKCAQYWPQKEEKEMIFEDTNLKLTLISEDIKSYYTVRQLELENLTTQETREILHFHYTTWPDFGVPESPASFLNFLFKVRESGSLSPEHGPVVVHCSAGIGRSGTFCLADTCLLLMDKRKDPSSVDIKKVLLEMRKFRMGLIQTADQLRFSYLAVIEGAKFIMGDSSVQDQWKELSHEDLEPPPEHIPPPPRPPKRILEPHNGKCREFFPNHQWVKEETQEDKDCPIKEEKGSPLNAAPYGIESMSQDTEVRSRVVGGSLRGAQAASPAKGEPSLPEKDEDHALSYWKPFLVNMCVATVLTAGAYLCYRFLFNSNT
The series is described as follows: Degradation assay in HEK293 cells (immunoblotting). Further details: endogenous in cells; host or cells: HEK293. It counts as cell-based. To be noted: 0.2 μM degrader, 16 hours. Background: In western blotting, separated proteins are transferred to a membrane and probed.

Series [2] concerns the target T2, TC-PTP (Homo sapiens, UniProt P17706).
T2 sequence (P17706 1-415): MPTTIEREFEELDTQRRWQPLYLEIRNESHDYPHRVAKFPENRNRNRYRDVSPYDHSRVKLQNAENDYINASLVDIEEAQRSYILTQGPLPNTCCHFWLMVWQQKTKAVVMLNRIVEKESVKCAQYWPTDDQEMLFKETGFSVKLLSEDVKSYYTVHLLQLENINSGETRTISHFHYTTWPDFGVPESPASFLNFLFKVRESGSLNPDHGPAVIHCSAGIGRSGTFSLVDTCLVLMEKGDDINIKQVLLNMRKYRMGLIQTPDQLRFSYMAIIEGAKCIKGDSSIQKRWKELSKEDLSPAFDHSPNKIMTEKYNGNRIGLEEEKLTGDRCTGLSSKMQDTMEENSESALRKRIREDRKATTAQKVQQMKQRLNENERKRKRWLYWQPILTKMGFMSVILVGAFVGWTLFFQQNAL
As to the kind of experiment: Degradation assay in HEK293 cells (immunoblotting). To be noted: 0.2 μM degrader, 16 hours, read-out: % Protein Degradation TC-PTP. It counts as cell-based. Set-up: endogenous in cells; host or cells: HEK293.

Series [3] can be described thus: Pharmacokinetic study in mice (i.p., different formulas). It counts as in vivo, mouse. Particulars: PBS buffer compared to saline. The procedure: Plasma concentrations of compound 47 were measured by LCMS after i.p. injection with different formulas at the indicated time.
For the PK study, C57BL6 female mice (25-30 g body weight) were injected intraperitoneally with 25 or 50 mg/kg compound 47 dissolved in 0.4 ml saline. Blood samples were collected through the tail vein at indicated time points after injection. Isoflurane was used as an anesthetic. All blood samples were centrifuged at 1,500 g for 5 minutes, and plasma was separated and stored at −80° C. until analysis by a validated method based on reversed-phase liquid chromatography coupled to mass-spectrometric detection (LC/MS) using a reported procedure (Journal of Clinical Investigation, 2018, 128, 816-825), which is hereby specifically incorporated by reference for its teachings regarding same (FIG. 5A).
Saline was replaced by PBS buffer in the treatment of compound 47 in mice to improve PK properties (FIG. 10). Both Cmax and area under the curve (AUC) were increased compared to the above method with saline.

For series [4], the system named is MC38 cells. As to the kind of experiment: MHC-I expression in MC38 cells by flow cytometry. It counts as cell-based. To be noted: 500 nM 16 hours, then mouse IFN-γ 48 hours. The procedure: Mouse MHC-I complex was stained with mouse H2K(b)/H2D(b) antibody and measured by flow cytometry.
After incubation, MC38 cells were trypsinized and washed in PBS+2% FBS, stained with Alexa Fluor® 647 anti-mouse H-2Kb/H-2Db Antibody against mouse MHC-I complex and then analyzed on a BD Fortessa LSR flow cytometry cell analyzer.
In general terms: Flow cytometry measures light scatter and fluorescence of single cells or particles in a stream.

Experimental findings from patent US20260240878A1, “PTP1B/TC-PTP DUAL INHIBITORS AND PROTEIN DEGRADERS” (Purdue Research Foundation, priority 2023, published 2026) are described below.

*1 amine or outer side, *2 acyl side, *3 side chain or, on linkers, in order; H or OH if unused. Where a SMILES comes first, the peptide text is derived from it. [ ]: non-standard residue; d: D form. The star is where a group is joined. NHCH2(1,3-C6H4)CH2CO = O=C(Cc1cccc(CN[*:1])c1)[*:2]; F2Pmp = N[C@@H](Cc1ccc(C(F)(F)P(=O)(O)O)cc1)C(=O)O; Phenylacetyl(4-OH,3-OMe) = COc1cc(CC(=O)*)ccc1O; Benzoyl(3-Br,4-Me) = Cc1ccc(C(=O)*)cc1Br; X1 = Cc1ncsc1-c1ccc([C@H](C)N*)cc1; Hyp = O=C(O)[C@@H]1C[C@@H](O)CN1; Tle = CC(C)(C)[C@H](N)C(=O)O

For `COc1cc(CC(=O)N[C@@H](Cc2ccccc2)C(=O)N[C@@H](Cc2ccc(C(F)(F)P(=O)(O)O)cc2)C(=O)N[C@@H](CCCCNC(=O)c2ccc(C)c(Br)c2)C(=O)NCc2cccc(CC(=O)N[C@H](C(=O)N3C[C@H](O)C[C@H]3C(=O)N[C@@H](C)c3ccc(-c4scnc4C)cc3)C(C)(C)C)c2)ccc1O` [Compound 47, ((4-((S)-3-(((S)-6-(3-bromo-4-methylbenzamido)-1-((3-(2-(((S)-1-((2S,4R)-4-hydroxy-2-(((S)-1-(4-(4-methylthiazol-5-yl)phenyl)ethyl)carbamoyl)pyrrolidin-1-yl)-3,3-dimethyl-1-oxobutan-2-yl)amino)-2-oxoethyl)benzyl)amino)-1-oxohexan-2-yl)amino)-2-((S)-2-(2-(4-hydroxy-3-methoxyphenyl)acetamido)-3-phenylpropanamido)-3-oxopropyl)phenyl)difluoromethyl)phosphonic Acid] ({Phenylacetyl(4-OH,3-OMe)}-F[F2Pmp]K(Benzoyl(3-Br,4-Me))[NHCH2(1,3-C6H4)CH2CO][Tle][Hyp]-X1), the “% Protein Degradation PTP1B” value in series [1] was found to be 95%. Further, the percent TC-PTP degradation at 0.2 µM in series [2] amounted to 92%. In addition, in series [3], the Cmax result is on record as “increased” and the “area under the curve (AUC)” value is listed as “increased”. Moreover, in series [4], the MHC-I expression entry is recorded as “elevated expression of MHC-I”.
